Structures can show the parent of a compound that is named as a salt.
Experiments:
[1] = target: T1, GluN1/2A receptors (Rattus norvegicus, UniProt P35439+Q00959); experiment: Traditional channel block (coapplication of drug and agonists), tsA201 cells; type: cell-based
T1 construct: expressed in transfected cells; host or cells: tsA201 cells (HEK 293 variant)
Protocol: (§1) Wildtype or mutant GluN1/2A receptors were used for all tsA201 cell experiments. 12–24 h after plating, tsA201 cells were transiently co-transfected using FuGENE6 Transfection Reagent (Promega) with mammalian expression plasmids that contained cDNAs encoding enhanced green fluorescent protein (EGFP in pRK7) for identification of transfected cells, the rat GluN1-1a subunit (referred to as GluN1; GenBank X63255 in pcDNA3.1), and the rat GluN2A subunit (GenBank M91561 in pcDNA1). For some experiments cells were transfected with GluN1 and EGFP:pIRES:GluN2A (a generous gift from Dr. Kasper Hansen (Hansen, unpublished)), which was constructed by inserting EGFP in pIRES (Clontech) under transcriptional control of the CMV promoter, and rat GluN2A cDNA (GenBank D13211) after the IRES sequence. Voltage clamp recordings were performed on tsA201 cells 12–48 h after transfection.
(§2) Pipettes were pulled from borosilicate capillary tubing (Sutter Instruments) on a Flaming Brown P-97 microelectrode puller (Sutter Instruments) and polished with a heated filament to a resistance of 2–5 MΩ. Whole-cell recordings were made from cells expressing eGFP identified by epifluorescence illumination on an inverted Zeiss Axiovert microscope. Cells were held at a Vm of −65 mV (corrected for a liquid junction potential of −6 mV) unless otherwise indicated. Whole-cell currents were recorded using an Axopatch 200B patch-clamp amplifier (Molecular Devices). Series resistance was compensated 80–90% using the prediction and correction circuitry. […] NMDAR responses were activated by fast perfusion of 1 mM glutamate (tsA201 cells) or 100 μM NMDA (cultured neurons).

[2] = test system: cultured neurons; parameters: method as in PMID 8570022; details: cultured neurons held at −70 mV; read-out: IC50 (previous value); cited from earlier work
[3] = target: T1, GluN1/2A receptors; experiment: MCI protocol, whole-cell recording from GluN1/2A NMDAR-expressing tsA201 cells; type: cell-based
Protocol: as §1, §2
Solutions were delivered to cells using a ten-barrel fast perfusion system. […] If channel blocker remained in the extracellular solution after the 1-s wash, measurements of MCI could have been contaminated by inhibition due to traditional open channel block.
We averaged minima of IControl2/IControl1 and IControl1/IControl2 to control for any possible rundown or runup of NMDAR response. For pH jump experiments, to control also for possible delayed effects of the pH jump on NMDAR responses, the minimum IMCI/IControl value was measured using an additional set of experiments.

[4] = test system: NMDARs; details: cited from earlier work
[5] = test system: native NMDARs in cultured neurons; experiment: MCI protocol, neurons in primary culture; type: cell-based, rat; details: 1 μM MK-801, pH 7.2, cultured neurons, 100 μM NMDA
[6] = test system: NMDAR; details: 30 μM intracellular memantine; cited from earlier work
[7] = parameters: method as in PMID 7086822; details: measured pKa; cited from earlier work
[8] = target: T2, GluN1/2A(M630W) receptors (Rattus norvegicus, UniProt P35439+Q00959, M630W); experiment: MCI protocol, GluN1/2A(M630W)
T2 sequence (Q00959 23-1464 M630W, other chains not shown): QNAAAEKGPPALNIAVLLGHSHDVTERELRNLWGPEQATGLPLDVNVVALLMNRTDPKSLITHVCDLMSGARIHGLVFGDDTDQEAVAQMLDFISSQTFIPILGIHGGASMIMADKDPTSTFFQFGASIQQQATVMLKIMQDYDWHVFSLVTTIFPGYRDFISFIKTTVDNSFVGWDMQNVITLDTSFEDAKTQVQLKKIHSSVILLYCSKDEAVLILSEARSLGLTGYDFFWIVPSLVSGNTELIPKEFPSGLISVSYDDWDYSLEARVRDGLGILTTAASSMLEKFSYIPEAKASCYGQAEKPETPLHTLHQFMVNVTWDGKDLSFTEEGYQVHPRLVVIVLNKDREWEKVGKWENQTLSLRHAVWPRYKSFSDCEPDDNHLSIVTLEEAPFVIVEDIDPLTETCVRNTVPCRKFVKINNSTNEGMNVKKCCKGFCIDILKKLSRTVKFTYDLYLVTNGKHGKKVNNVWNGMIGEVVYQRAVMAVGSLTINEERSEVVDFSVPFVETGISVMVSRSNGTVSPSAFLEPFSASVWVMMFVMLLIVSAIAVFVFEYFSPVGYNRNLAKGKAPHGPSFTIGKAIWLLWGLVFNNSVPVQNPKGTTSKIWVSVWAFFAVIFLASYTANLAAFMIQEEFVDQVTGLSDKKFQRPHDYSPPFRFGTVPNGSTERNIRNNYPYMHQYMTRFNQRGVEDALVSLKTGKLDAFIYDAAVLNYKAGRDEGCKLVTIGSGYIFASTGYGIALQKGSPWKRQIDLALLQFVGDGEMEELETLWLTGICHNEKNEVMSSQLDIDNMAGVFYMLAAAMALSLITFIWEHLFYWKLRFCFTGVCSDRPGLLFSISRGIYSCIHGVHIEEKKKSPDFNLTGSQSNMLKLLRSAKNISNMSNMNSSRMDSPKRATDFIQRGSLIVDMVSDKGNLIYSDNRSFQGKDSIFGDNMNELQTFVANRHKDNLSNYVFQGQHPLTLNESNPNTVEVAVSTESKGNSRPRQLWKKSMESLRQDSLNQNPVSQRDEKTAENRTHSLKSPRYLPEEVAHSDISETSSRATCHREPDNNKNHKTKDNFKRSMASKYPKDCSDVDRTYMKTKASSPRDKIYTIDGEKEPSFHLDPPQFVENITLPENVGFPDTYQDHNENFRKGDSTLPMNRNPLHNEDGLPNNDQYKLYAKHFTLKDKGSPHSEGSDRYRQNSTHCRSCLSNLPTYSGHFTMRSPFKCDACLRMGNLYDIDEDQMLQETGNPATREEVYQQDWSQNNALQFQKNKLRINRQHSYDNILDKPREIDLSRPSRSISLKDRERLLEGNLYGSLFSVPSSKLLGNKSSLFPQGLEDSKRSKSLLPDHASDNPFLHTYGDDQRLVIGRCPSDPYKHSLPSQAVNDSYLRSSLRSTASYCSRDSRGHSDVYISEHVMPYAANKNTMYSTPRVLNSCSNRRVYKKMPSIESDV

[9] = pKa, charged/uncharged fraction in aqueous solution; type: physicochemical
Text: [36]). […] We tested this prediction by measuring the dependence of MCI on extracellular pH. A similar approach was used to study membrane partitioning of local anesthetics during VGSC inhibition[23],[24],[27].

[10] = target: T3, GluN1/2A(M630A) receptors (Rattus norvegicus, UniProt P35439+Q00959, M630A); experiment: Traditional [memantine]-inhibition curve, GluN1/2A(M630A)
T3 sequence (Q00959 23-1464 M630A, other chains not shown): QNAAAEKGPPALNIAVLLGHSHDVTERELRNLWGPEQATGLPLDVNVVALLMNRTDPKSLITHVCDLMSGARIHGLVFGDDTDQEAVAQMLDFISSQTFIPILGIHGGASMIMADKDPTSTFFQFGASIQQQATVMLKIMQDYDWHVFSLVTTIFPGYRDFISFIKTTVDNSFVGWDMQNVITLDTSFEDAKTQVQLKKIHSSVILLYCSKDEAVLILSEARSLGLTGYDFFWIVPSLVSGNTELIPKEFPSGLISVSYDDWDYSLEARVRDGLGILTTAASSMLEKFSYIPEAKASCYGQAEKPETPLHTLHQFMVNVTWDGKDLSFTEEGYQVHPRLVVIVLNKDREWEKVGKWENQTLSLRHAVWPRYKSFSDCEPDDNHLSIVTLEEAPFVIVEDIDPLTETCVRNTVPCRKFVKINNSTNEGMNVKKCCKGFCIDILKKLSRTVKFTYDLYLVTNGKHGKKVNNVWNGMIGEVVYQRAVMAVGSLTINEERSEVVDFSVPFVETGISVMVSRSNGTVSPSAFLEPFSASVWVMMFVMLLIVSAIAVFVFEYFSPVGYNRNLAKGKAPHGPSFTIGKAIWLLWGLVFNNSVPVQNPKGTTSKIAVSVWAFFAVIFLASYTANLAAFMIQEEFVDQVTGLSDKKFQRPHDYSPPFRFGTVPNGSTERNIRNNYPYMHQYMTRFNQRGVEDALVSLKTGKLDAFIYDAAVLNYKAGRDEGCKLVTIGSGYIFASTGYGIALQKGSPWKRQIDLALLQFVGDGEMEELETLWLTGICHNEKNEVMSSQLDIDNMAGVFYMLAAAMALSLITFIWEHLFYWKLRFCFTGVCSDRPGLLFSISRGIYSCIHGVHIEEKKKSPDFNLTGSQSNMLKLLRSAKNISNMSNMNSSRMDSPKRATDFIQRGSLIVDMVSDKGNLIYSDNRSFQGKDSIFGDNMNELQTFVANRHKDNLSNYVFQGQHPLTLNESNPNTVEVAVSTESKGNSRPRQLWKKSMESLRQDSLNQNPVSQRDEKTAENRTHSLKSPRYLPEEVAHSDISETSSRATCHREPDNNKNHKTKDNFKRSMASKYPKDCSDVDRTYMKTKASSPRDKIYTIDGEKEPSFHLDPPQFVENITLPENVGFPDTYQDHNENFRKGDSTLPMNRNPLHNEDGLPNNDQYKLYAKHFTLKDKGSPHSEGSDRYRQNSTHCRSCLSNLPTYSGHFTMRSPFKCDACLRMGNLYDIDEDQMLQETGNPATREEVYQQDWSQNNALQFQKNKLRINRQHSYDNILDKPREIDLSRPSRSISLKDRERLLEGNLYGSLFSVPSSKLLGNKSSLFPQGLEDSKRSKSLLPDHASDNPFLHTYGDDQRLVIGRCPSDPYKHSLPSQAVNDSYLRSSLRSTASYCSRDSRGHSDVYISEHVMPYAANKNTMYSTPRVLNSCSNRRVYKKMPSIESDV

[11] = target: T3, GluN1/2A(M630A) receptors; experiment: MCI protocol, GluN1/2A(M630A)
[12] = cited from earlier work
[13] = target: T2, GluN1/2A(M630W) receptors; experiment: Traditional [memantine]-inhibition curve, GluN1/2A(M630W)
[14] = test system: native NMDARs in cultured neurons; details: cited from earlier work
[15] = pH 7.2, WT, −65 mV, read-out: traditional IC50
[16] = constant pH 9.0, 1 mM TMM, 165 μM DMM

T1 sequence (Q00959 23-1464, other chains not shown): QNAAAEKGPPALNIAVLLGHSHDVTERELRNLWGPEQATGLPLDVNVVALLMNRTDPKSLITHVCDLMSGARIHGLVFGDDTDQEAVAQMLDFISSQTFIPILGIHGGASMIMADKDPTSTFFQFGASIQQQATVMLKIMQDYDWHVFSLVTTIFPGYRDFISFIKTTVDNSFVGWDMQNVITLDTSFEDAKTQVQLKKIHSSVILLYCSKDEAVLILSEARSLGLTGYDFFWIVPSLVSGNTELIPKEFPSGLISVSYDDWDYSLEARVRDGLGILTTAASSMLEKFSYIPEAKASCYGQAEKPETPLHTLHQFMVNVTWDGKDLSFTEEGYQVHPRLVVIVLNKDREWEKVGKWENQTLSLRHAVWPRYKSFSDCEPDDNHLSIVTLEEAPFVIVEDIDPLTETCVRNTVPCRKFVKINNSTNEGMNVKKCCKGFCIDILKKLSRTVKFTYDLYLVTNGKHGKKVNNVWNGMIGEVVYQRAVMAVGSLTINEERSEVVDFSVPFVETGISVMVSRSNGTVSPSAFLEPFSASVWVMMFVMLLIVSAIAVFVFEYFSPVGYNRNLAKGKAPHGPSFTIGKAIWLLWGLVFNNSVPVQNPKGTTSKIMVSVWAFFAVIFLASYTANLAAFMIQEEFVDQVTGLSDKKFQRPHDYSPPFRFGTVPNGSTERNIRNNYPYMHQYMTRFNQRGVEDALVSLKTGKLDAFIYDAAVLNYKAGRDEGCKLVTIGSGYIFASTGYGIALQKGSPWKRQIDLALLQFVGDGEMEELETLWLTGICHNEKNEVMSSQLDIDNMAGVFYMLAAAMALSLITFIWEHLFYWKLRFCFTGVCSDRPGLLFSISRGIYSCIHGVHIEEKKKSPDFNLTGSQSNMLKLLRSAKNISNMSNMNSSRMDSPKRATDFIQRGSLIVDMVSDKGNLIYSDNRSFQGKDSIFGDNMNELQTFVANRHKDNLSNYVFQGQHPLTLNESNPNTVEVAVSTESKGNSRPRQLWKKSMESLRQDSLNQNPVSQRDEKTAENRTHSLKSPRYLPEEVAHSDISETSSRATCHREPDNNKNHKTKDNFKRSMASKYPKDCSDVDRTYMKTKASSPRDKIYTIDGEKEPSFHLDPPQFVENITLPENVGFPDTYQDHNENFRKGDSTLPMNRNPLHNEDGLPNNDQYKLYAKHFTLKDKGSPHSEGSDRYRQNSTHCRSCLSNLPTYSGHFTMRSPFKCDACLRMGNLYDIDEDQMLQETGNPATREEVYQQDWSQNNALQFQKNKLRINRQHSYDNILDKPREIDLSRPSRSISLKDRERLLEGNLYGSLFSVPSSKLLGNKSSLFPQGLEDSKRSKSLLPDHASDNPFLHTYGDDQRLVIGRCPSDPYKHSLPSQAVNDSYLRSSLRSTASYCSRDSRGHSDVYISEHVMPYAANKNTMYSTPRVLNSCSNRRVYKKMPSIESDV

## CN(C)C12CC3CC(C)(CC(C)(C3)C1)C2.Cl [DMM, N,N,3,5-tetramethyladamantan-1-amine hydrochloride]
other
  melting point: 180 °C
[1]; [15]
  IC50: 16.8 ± 1.5 µM
[2]
  IC50: 28.4 ± 1.4 µM
[3]; 165 μM DMM, constant pH 9.0
  Min IMCI/IControl: 0.402 ± 0.037
[3]; [16]
  MCI exhibited (in words): strong MCI

## CNC1(c2ccccc2Cl)CCCCC1=O (stereo not shown) [ketamine]
[4]
  MCI exhibited (in words): does not exhibit MCI

## C[C@]12N[C@H](Cc3ccccc31)c1ccccc12 [MK-801]
[5]
  Min IMCI/IControl: 0.612 ± 0.019
[3]; 1 μM MK-801, pH 7.2
  Min IMCI/IControl: 0.459 ± 0.035
  τM of MCI onset: 1002 ± 135 ms
[3]; 10 μM MK-801, pH 7.2
  Min IMCI/IControl: 0.097 ± 0.029
  τM of MCI onset: 311 ± 59 ms
[3]; pH 7.2
  MCI exhibited (in words): displayed MCI
  τM faster at 10 μM than at 1 μM MK-801: ~ 3 fold

## c1ccc(C2(N3CCCCC3)CCCCC2)cc1 [PCP, phencyclidine]
[3]; 10 μM PCP, pH 7.2
  Min IMCI/IControl: 0.409 ± 0.063
[3]; pH 7.2
  MCI exhibited (in words): displayed MCI

## CC12CC3CC1(C)C1(C)CC3(CN)CC21C [RL-208]
[3]; 20 μM RL-208, pH 7.2
  Min IMCI/IControl: 0.275 ± 0.017
[3]; pH 7.2
  MCI exhibited (in words): displayed MCI

## CN1CC[C@@]23CCCC[C@@H]2[C@@H]1Cc1ccc(O)cc13 [dextrorphan]
[3]; 50 μM dextrorphan, pH 7.2
  Min IMCI/IControl: 0.549 ± 0.043
[3]; pH 7.2
  MCI exhibited (in words): displayed MCI

## CC12CC3CC(C)(C1)CC(N)(C3)C2 [memantine]
[6]
  NMDAR inhibition by intracellular drug (in words): not to cause NMDAR inhibition
[7]
  pKa: 10.4
[8]
  IC50: 148 ± 2.8 µM
[1]; traditional IC50, pH 7.2, WT, −65 mV
  IC50: 1.71 ± 0.06 µM
[1]; traditional IC50, pH 9.0, WT
  IC50: 3.43 ± 0.61 µM
[9]; pH 6.3
  Uncharged %: 0.008%
  [Uncharged] at 100 μM: 8 nM
[9]; pH 7.2
  Uncharged %: 0.063%
  [Uncharged] at 100 μM: 63 nM
[9]; pH 9.0
  Uncharged %: 3.8%
  [Uncharged] at 100 μM: 3800 nM
[10]
  IC50: 1.65 ± 0.09 µM
[11]
  IC50: 51.4 ± 5.1 µM
[12]
  LogP: ~ 3
[13]
  IC50: 1.49 ± 0.2 µM
[14]
  MCI of native NMDARs (in words): subject to MCI
[4]; 100 μM memantine, 35 mV
  MCI at depolarized Vm (in words): nearly abolished
[3]; 100 μM memantine, pH 7.2, from point-by-point ratios
  time constant of current decay following the preinhibition peak: 46.4 ± 4.1 ms
[3]; 100 μM memantine, pH 7.2, likely faster than decay time constant
  time constant of MCI onset: < 46.4 ms
[3]; Memantine MCI IC50, pH 7.2 (Fig. 1h data set)
  IC50: 71 ± 1.7 µM
[3]; Memantine MCI IC50, pH 9.0 jump
  IC50: 8.77 ± 3.26 µM
[3]; Memantine MCI IC50 of WT receptors, pH 7.2 (additional data set, Fig. 6h)
  IC50: 68.6 ± 4.8 µM
[3]; tsA201, pH 6.3, read-out: Memantine MCI IC50
  potency estimated from few doses: 841 ± 5 µM

## CC12CC3CC(C)(C1)CC([N+](C)(C)C)(C3)C2 (as salt: iodide) [TMM, N,N,N,3,5-pentamethyladamantan-1-ammonium iodide]
other
  melting point: > 200 °C (dec.)

## CC12CC3CC(C)(C1)CC([N+](C)(C)C)(C3)C2 [TMM, N,N,N,3,5-pentamethyladamantan-1-ammonium iodide]
[1]; [15]
  IC50: 72.3 ± 14.2 µM
[3]; 1 mM TMM, constant pH 9.0
  Min IMCI/IControl: 0.987 ± 0.039
[3]; [16]
  MCI exhibited (in words): no MCI

Reference: paper PMC9287434, “Inhibition of NMDA receptors through a membrane-to-channel path” (Nature Communications, 2022)
